Earlier results on two compounds are cited in article PMC9332635 (Journal of Food and Drug Analysis, 2017).

For data set [1] the following is noted: method validation study of isosteviol.
Data set [2] has as its system HBsAg secretion in HBV-transfected cell-lines.

With `C[C@@]12CC[C@@H]3[C@@](CC[C@H]4[C@@]3(C)CCC[C@@]4(C)C(=O)O)(CC1=O)C2` [isosteviol], in data set [1], the Long-term stability is listed as 61 days.
Consider `Nc1ccn([C@@H]2CS[C@H](CO)O2)c(=O)n1` [lamivudine], for which the “IC50 for inhibiting HBsAg secretion” value in data set [2] is 49.13 µg/mL.
